Test results reported in US8936916B2, “Polypeptides for microbial detection” (3M Innovative Properties Company, priority 2008, dated 2015).
Ends that are not written are not given here.

What was measured:
[1] = as the pH drops from 7; cited from earlier work
[2] = Permeabilization of DPPC liposomes containing glucose oxidase (glucose oxidase/HRP colour reaction, scanned image); type: biochemical; settings: for Relative glucose oxidase activity (integrated digital values): DPPC; for Color apparent in the well: 30 minutes at room temperature
Experimental: (§1) The formation of a pore allows glucose into the liposome where it reacts with glucose oxidase to generate hydrogen peroxide. The hydrogen peroxide reacts with HRP, 4-AAP and TOOS (all outside the liposome) to generate an intense purple color.
(§2) The ability of the phosphorylated phylloxin to open liposomes in the presence of phosphatase was tested by preparing a developing solution of 0.5 mg/mL TOOS (3-(N-Ethyl-3-methylanilino)-2-hydroxypropanesulfonic acid sodium salt) (Sigma-Aldrich, St. Louis, Mo.), 1.0 mg/mL 4-AAP (4-amino-antipyrene) (Sigma-Aldrich), 12.5 mg/mL glucose and 0.0001 mg/mL HRP (horseradish peroxidase) (Pierce Biotechnology, Rockford, Ill.) in 50 mM TES.
(§3) 200 μL of this solution was placed in one well of 96-well plate containing 10 μL (0.004 mg/mL) of a DPPC liposome suspension. A second well was prepared similarly and 10 μL (0.3 mg/mL) of phylloxin solution in TES was also added. A third well was prepared similar to the second well. Alkaline phosphatase (10 μL at 2.5 mg/mL in TES) was added to the third well to a final concentration of 0.11 mg/mL. A similar set of wells was prepared with DOPC/cholesterol liposomes at the same concentration.
(§4) A weaker color was apparent in the well with DPPC liposomes, phylloxin and phosphatase, and weaker again in the well with DPPC liposomes and phylloxin. The remaining wells were essentially colorless. The image was recorded on an HP scanner and analyzed using an AlphaImager (Alpha Innotech, San Leandro, Calif.). The integrated digital values at 30 minutes are shown in Table 1 below, and at two hours in Table 2.

[3] = Permeabilization of DOPC/cholesterol liposomes containing glucose oxidase (glucose oxidase/HRP colour reaction, scanned image); type: biochemical; settings: for Relative glucose oxidase activity (integrated digital values): DOPC/Cholesterol
Experimental: as §1, §2, §3, §4

[4] = Permeabilization of DPPC liposomes containing glucose oxidase by phosphorylated dermatoxin (absorbance at 538 nm); type: biochemical; settings: Positive Control
Experimental: DPPC liposomes containing 5 mg/mL glucose oxidase were prepared as described in Example 2. Glucose oxidase activity was measured in a coupled enzyme reaction with horseradish peroxidase as described in Example 2. The various solutions were quickly added to each of the wells of a microplate using a multichannel pipette and the reactions were started (at T=0 hours) with the addition to the wells of a solution containing glucose and 4-AAP.
The ability of the phosphorylated dermatoxin to open liposomes in the presence of phosphatase was tested by preparing a developing solution as described in Example 2. One hundred-fifty microliters of the developing solution was placed in each well of a 96-well microplate. To each column in the plate was added 20 μL of TES buffer containing one of the following concentrations of unpurified dermatoxin: 3.3 mg/mL, 3.3×10^−1 mg/mL, 3.3×10^−2 mg/mL, 3.3×10^−3 mg/mL, 3.3×10^−4 mg/mL, 3.3×10^−5 mg/mL, 3.3×10^−6 mg/mL, or 3.3×10^−7 mg/mL. Negative control wells contained TES buffer with no dermatoxin. Positive control wells buffer contained TES buffer with Triton X-100. Ten-microliter aliquots of the following concentrations of DPPC liposomes (containing 5 mg/mL glucose oxidase) were added to wells in duplicate rows: 0.1 mg lipid/mL, 0.02 mg lipid/mL, 0.004 mg lipid/mL, or plain buffer. To one of the duplicate rows was added 20 μL of 2.5 mg/mL alkaline phosphatase in TES. The other duplicate row received 20 μL of TES buffer. Thus the final dermatoxin concentration in the well varied from […], and the final lipid concentration in the well ranged from 0.005 mg lipid/mL to 2.0×10^−4 mg lipid/mL.
The absorbance was recorded at 538 nm on a SpectraMax M5 plate reader (Molecular Devices, Sunnyvale, Calif.) after two hours incubation at room temperature, and also after overnight incubation (approximately 18 hours). Since the absorbance of several wells was saturated, the overnight samples were diluted 1:10 with 50 mmol TES and the absorbance of the diluted samples was measured.

[5] = 2-hour incubation, liposome + peptide
[6] = 2-hour incubation, liposome + peptide + phosphatase
[7] = 30-minute incubation, liposome + peptide
[8] = 30-minute incubation, liposome + peptide + phosphatase

Substance: GALA
- pH at which the cytolytic peptide becomes activated [1]: about 5.0

Substance: GWMSKIASGIGTFLSGMQQ (GWMSKIASGIGTFLSGMQQ-NH2; not fully specified (residues 4, 8, 12, 15, N-terminus); also: phosphorylated) [Tetraphosphorylated Phylloxin, fully phosphorylated phylloxin made by Fmoc synthesis on Rink amide resin, HPLC purified]
- Relative glucose oxidase activity (integrated digital values) [2, 5]: 173670
- Relative glucose oxidase activity (integrated digital values) [2, 6]: 217620
- Relative glucose oxidase activity (integrated digital values) [2, 7]: 84996
- Relative glucose oxidase activity (integrated digital values) [2, 8]: 97588
- Color apparent in the well ([2]; DPPC liposomes and phylloxin, no phosphatase): weaker again
- Color apparent in the well ([2]; DPPC liposomes, phylloxin and phosphatase): weaker color
- Phosphatase-dependent opening of liposomes ([2]; DPPC liposomes, with versus without alkaline phosphatase): still an effect, but it is not so pronounced
- Relative glucose oxidase activity (integrated digital values) [3, 5]: 128550
- Relative glucose oxidase activity (integrated digital values) [3, 6]: 299950
- Relative glucose oxidase activity (integrated digital values) [3, 7]: 67680
- Relative glucose oxidase activity (integrated digital values) [3, 8]: 184416
- Color apparent in the well ([3]; 30 minutes at room temperature, DOPC/cholesterol liposomes, phylloxin and phosphatase): dark purple color
- Opening of liposomes ([3]; DOPC/cholesterol liposomes, in the absence of alkaline phosphatase): little effect
- Opening of liposomes ([3]; DOPC/cholesterol liposomes, in the presence of alkaline phosphatase): rapidly opens liposomes

Substance: Triton X-100 [Positive Control, reference compound]
- Absorbance at 538 nm (cytolytic peptide activity) ([4]; 2 hrs, lipid conc. 0, with phosphatase): 2.272 absorbance units
- Absorbance at 538 nm (cytolytic peptide activity) ([4]; 2 hrs, lipid conc. 0, without phosphatase): 0.123 absorbance units
- Absorbance at 538 nm (cytolytic peptide activity) ([4]; 2 hrs, lipid conc. 0.004, with phosphatase): 0.132 absorbance units
- Absorbance at 538 nm (cytolytic peptide activity) ([4]; 2 hrs, lipid conc. 0.004, without phosphatase): 0.210 absorbance units
- Absorbance at 538 nm (cytolytic peptide activity) ([4]; 2 hrs, lipid conc. 0.02, with phosphatase): 0.296 absorbance units
- Absorbance at 538 nm (cytolytic peptide activity) ([4]; 2 hrs, lipid conc. 0.02, without phosphatase): 0.602 absorbance units
- Absorbance at 538 nm (cytolytic peptide activity) ([4]; 2 hrs, lipid conc. 0.1, with phosphatase): 0.557 absorbance units
- Absorbance at 538 nm (cytolytic peptide activity) ([4]; 2 hrs, lipid conc. 0.1, without phosphatase): 2.220 absorbance units
- Absorbance at 538 nm (cytolytic peptide activity) ([4]; 18 hrs (d), 1:10-diluted sample, lipid conc. 0, with phosphatase): 1.064 absorbance units
- Absorbance at 538 nm (cytolytic peptide activity) ([4]; 18 hrs (d), 1:10-diluted sample, lipid conc. 0, without phosphatase): 0.055 absorbance units
- Absorbance at 538 nm (cytolytic peptide activity) ([4]; 18 hrs (d), 1:10-diluted sample, lipid conc. 0.004, with phosphatase): 0.056 absorbance units
- Absorbance at 538 nm (cytolytic peptide activity) ([4]; 18 hrs (d), 1:10-diluted sample, lipid conc. 0.004, without phosphatase): 0.097 absorbance units
- Absorbance at 538 nm (cytolytic peptide activity) ([4]; 18 hrs (d), 1:10-diluted sample, lipid conc. 0.02, with phosphatase): 0.094 absorbance units
- Absorbance at 538 nm (cytolytic peptide activity) ([4]; 18 hrs (d), 1:10-diluted sample, lipid conc. 0.02, without phosphatase): 0.274 absorbance units
- Absorbance at 538 nm (cytolytic peptide activity) ([4]; 18 hrs (d), 1:10-diluted sample, lipid conc. 0.1, with phosphatase): 0.252 absorbance units
- Absorbance at 538 nm (cytolytic peptide activity) ([4]; 18 hrs (d), 1:10-diluted sample, lipid conc. 0.1, without phosphatase): 1.018 absorbance units
- Absorbance at 538 nm (cytolytic peptide activity) ([4]; 18 hrs, lipid conc. 0, with phosphatase): 4.000 absorbance units
- Absorbance at 538 nm (cytolytic peptide activity) ([4]; 18 hrs, lipid conc. 0, without phosphatase): 0.158 absorbance units
- Absorbance at 538 nm (cytolytic peptide activity) ([4]; 18 hrs, lipid conc. 0.004, with phosphatase): 0.158 absorbance units
- Absorbance at 538 nm (cytolytic peptide activity) ([4]; 18 hrs, lipid conc. 0.004, without phosphatase): 0.524 absorbance units
- Absorbance at 538 nm (cytolytic peptide activity) ([4]; 18 hrs, lipid conc. 0.02, with phosphatase): 0.524 absorbance units
- Absorbance at 538 nm (cytolytic peptide activity) ([4]; 18 hrs, lipid conc. 0.02, without phosphatase): 2.043 absorbance units
- Absorbance at 538 nm (cytolytic peptide activity) ([4]; 18 hrs, lipid conc. 0.1, with phosphatase): 2.043 absorbance units
